Source: US11987579B2 (Duke University, priority 2018, dated 2024)

System: CCD841Co colonic cells
Assay: Assessment of oxygen consumption rate (OCR), Seahorse XFp
Assay type: cell-based
Details: 1 μM FCCP, cells treated with DMSO control media
Description: Colonic epithelial CCD841Co cells were plated in Seahorse XFp 8-well miniplates at 8000 cells/well and allowed to attach overnight at 37° C. in a 5% CO2 incubator. Polarographic analysis of OCR was performed using Seahorse XF Analyzer (Agilent Technologies, Santa Clara, Calif.) and a Seahorse XFp Cell Mito Stress Test Kit (Agilent Technologies, catalog number 103010-100). […] Data were analyzed by the software Wave (Version 2.3.0.20, Agilent Technologies, Santa Clara, Calif.).

## N#CC(C#N)=NNc1ccc(OC(F)(F)F)cc1 [FCCP]
  oxygen consumption rate after control compound addition: increases oxygen consumption rate
